Test results as given in ChEMBL document CHEMBL3352167 (Bioorg Med Chem, 2015).
pKi: −log10 of the molar value.

Assays:
[1] = molecular target: Sigma non-opioid intracellular receptor 1 (Cavia porcellus, UniProt Q60492); assay: Displacement of [3H]-(+)-pentazocine from sigma1 receptor in guinea pig brain membrane after 150 mins by scintillation counting analysis; type: cell membranes
[2] = Displacement of [3H]DTG from sigma2 receptor in guinea pig brain membrane after 120 mins by scintillation counting analysis; type: cell membranes, Cavia porcellus
[3] = species on record: Cavia porcellus; assay: Selectivity ratio of Ki for guinea pig brain sigma2 receptor to Ki for guinea pig brain sigma1 receptor
[4] = molecular target: Sodium-dependent dopamine transporter (Mus musculus) (UniProt Q61327); assay: […] from mouse DAT in striatal membranes at 10000 nM; type: cell membranes; settings: Striatum, Membrane
Chain of Sodium-dependent dopamine transporter (Mus musculus) (Q61327 whole entry): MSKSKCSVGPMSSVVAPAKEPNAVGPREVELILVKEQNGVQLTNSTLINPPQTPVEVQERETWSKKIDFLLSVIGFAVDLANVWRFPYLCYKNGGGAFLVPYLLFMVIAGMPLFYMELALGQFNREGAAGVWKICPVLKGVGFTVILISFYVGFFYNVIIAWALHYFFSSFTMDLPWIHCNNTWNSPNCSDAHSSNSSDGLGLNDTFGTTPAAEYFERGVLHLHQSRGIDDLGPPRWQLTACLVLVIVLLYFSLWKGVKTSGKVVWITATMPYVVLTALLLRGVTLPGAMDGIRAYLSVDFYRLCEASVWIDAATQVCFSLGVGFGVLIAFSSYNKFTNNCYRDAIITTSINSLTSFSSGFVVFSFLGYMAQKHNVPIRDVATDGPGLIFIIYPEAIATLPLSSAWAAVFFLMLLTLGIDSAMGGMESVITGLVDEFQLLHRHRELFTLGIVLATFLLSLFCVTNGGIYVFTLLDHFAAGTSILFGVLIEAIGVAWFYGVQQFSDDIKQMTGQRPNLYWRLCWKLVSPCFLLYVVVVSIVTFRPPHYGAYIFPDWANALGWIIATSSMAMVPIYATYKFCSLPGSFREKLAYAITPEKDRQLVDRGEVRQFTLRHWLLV

[5] = molecular target: Sodium-dependent serotonin transporter (Mus musculus, UniProt Q60857); assay: Displacement of [3H]paroxetine from mouse SERT in whole brain membrane; type: cell membranes
Chain of Sodium-dependent serotonin transporter (Q60857 whole entry): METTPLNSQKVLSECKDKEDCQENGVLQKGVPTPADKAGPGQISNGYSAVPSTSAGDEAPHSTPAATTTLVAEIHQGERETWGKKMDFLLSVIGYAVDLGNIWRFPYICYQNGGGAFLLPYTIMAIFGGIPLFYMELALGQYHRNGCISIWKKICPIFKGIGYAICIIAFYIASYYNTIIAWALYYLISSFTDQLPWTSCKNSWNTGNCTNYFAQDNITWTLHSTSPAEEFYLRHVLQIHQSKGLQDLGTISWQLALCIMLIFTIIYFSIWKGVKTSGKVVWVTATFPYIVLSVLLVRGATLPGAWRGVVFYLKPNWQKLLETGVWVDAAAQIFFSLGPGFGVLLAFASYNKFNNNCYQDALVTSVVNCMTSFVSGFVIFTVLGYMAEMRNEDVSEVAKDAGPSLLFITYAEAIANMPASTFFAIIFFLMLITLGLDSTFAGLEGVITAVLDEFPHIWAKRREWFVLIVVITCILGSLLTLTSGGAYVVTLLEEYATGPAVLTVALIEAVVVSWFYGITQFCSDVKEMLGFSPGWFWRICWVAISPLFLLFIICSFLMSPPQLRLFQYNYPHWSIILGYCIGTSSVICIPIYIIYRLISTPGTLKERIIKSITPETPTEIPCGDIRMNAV

[6] = Selectivity ratio of Ki for mouse DAT to Ki for guinea pig brain sigma1 receptor
[7] = Selectivity ratio of Ki for mouse SERT to Ki for guinea pig brain sigma1 receptor
[8] = molecular target: Sodium-dependent dopamine transporter (Mus musculus, UniProt Q61327); assay: Displacement of [3H]RTI-121 from mouse DAT in striatal membranes; type: cell membranes, Striatum, Membrane
Chain of Sodium-dependent dopamine transporter (Q61327 whole entry): as the sequence (Q61327 whole entry) above

Chain of Sigma non-opioid intracellular receptor 1 (Q60492 whole entry): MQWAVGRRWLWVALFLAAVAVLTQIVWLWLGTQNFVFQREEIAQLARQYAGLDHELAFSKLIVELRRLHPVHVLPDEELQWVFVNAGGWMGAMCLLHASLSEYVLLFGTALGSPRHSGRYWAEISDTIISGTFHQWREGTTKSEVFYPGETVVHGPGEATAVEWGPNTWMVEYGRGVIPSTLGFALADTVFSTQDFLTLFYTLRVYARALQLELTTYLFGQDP

pKi [1]	pKi [2]	Ratio Ki [3]	Inhibition % [4] [%]	pKi [5]	Ratio Ki [6]	Ratio Ki [7]	pKi [8]	SMILES
7.77	7.74	1.1	69	6.76	33	10.3	6.25	COc1cc(CCN2CCN(CCCc3ccccc3)CC2)ccc1OC/C=C/I
8.89	7.54	22		5.76	1130	1330	5.83	COc1ccc(CCN2CCN(CCCc3ccccc3)CC2)cc1
7.60	7.57	1.1	38					COc1cc(CCN2CCN(CCCc3ccccc3)CC2)ccc1OCCBr
7.72	7.28	2.7	43					c1ccc(CCCN2CCN(CCc3ccc4c(c3)OCCCO4)CC2)cc1
7.59	7.48	1.3	43	6.91	71	4.8	5.74	CCCOc1ccc(CCN2CCN(CCCc3ccccc3)CC2)cc1OC
8.85	7.99	7.3		6.01	1010	703	5.85	COc1cccc(CCN2CCN(CCCc3ccccc3)CC2)c1
8.66	7.41			5.54				Clc1ccc(CCN2CCN(CCCc3ccccc3)CC2)cc1Cl
7.88	7.78	1.2	89					COc1cc(CCN2CCN(CCCc3ccccc3)CC2)ccc1OCCc1ccccc1
8.76	8.17	3.8						COc1cc(CCN2CCN(CCCc3ccccc3)CC2)ccc1O
7.97	7.78	1.6	94		22		6.63	COc1cc(CCN2CCN(CCCc3ccccc3)CC2)ccc1OC/C=C\I
7.99	7.45	3.4	33					c1ccc(CCCN2CCN(CCc3ccc4c(c3)OCCO4)CC2)cc1
8.59	7.83	5.8	42	6.33	721	184	5.74	c1ccc(CCCN2CCN(CCc3ccc4c(c3)OCO4)CC2)cc1
8.10	6.95	14.1	23					COc1cc(CCN2CCN(CCCc3ccccc3)CC2)ccc1OCCF
	8.12							COc1ccccc1CCN1CCN(CCCc2ccccc2)CC1
8.19	6.60	39	19					COc1cc(CCN2CCN(CCCc3ccccc3)CC2)ccc1OCF

SMILES	pKi [1]	pKi [2]	Ratio Ki [3]	Inhibition % [4] [%]	pKi [5]	Ratio Ki [6]	Ratio Ki [7]	pKi [8]
COc1ccc(CCN2CCN(CCCc3ccccc3)CC2)cc1OC [[11C]SA4503]		7.20			6.12			
C=CCOc1ccc(CCN2CCN(CCCc3ccccc3)CC2)cc1OC	7.52	7.38	1.4	44	6.53	69	9.8	5.68
COc1cc(CCN2CCN(CCCc3ccccc3)CC2)ccc1OCCCc1ccccc1	7.73	7.63	1.3	97		5		7.06
COc1cc(CCN2CCN(CCCc3ccccc3)CC2)ccc1OCc1ccccc1	7.68	7.78	0.8	93	6.89	6	6.2	6.92
